The text below walks through data of patent US8318504B2, “MRP2 efflux pathway prognostic method” (priority 2009, dated 2012).

The target in series [1] is T1, ABCB11 (Homo sapiens, UniProt O95342).
T1 construct: His tag (inferred from the anti-his probe used on the Western blot); made in house; host or cells: Sf21 insect cells, baculovirus (gift from Thompson); plasma membrane vesicles
In words: ATP-dependent transport of CLF into Sf21 membrane vesicles containing ABCB11. In kind it is biochemical. Particulars: compared with control vesicles. The procedure: (§1) The production of recombinant baculovirus was as described by de Waart et al. [Liver Int 2006 April; 26(3):362-368]. ABCC3 and ABCG2-recombinant baculovirus were a kind gift from Borst [Breedveld P. et al., Cancer Res 2004 Aug. 15; 64(16):5804-5811 and Borst P. et al., J Biol Chem 2001 Dec. 7; 276(49):46400-46407.]. ABCB11-recombinant baculovirus was a kind gift from Thompson [Thompson R J et al., Gastroenterology 2002 November; 123(5):1649-1658]. Sf21 cells grown at 27° C. were infected with ABCB11, ABCC2, ABCC3 and ABCG2-cDNA containing baculovirus. Cells were harvested at 2-4 days after infection. Membrane vesicle preparation was as described by de Waart et al. [Liver Int 2006 April; 26(3):362-368].
(§2) Transport studies with membrane vesicles were performed using the rapid filtration technique as described by Heijn M et al. [Am J Physiol 1992 January; 262(1 Pt 1):C104-C110]. Radiolabel was measured with a scintillation counter. When CLF was used as a probe, filters were placed in a glass tube, 0.1% Triton-X-100 was added and the tubes vortexed. Samples were pipetted in 96-well plates (Kartell, Noviglio, Italy) and the amount CLF quantitated by measurement of fluorescence at λexe 485 nm and λcm 520 nm using a NovoStar (BMG-labtech, Offenburg, Germany).

The target in series [2] is T2, ABCC3 (Homo sapiens, UniProt O15438).
T2 construct: made in house; host or cells: Sf21 insect cells, baculovirus (gift from Borst); plasma membrane vesicles
T2 sequence (O15438 whole entry): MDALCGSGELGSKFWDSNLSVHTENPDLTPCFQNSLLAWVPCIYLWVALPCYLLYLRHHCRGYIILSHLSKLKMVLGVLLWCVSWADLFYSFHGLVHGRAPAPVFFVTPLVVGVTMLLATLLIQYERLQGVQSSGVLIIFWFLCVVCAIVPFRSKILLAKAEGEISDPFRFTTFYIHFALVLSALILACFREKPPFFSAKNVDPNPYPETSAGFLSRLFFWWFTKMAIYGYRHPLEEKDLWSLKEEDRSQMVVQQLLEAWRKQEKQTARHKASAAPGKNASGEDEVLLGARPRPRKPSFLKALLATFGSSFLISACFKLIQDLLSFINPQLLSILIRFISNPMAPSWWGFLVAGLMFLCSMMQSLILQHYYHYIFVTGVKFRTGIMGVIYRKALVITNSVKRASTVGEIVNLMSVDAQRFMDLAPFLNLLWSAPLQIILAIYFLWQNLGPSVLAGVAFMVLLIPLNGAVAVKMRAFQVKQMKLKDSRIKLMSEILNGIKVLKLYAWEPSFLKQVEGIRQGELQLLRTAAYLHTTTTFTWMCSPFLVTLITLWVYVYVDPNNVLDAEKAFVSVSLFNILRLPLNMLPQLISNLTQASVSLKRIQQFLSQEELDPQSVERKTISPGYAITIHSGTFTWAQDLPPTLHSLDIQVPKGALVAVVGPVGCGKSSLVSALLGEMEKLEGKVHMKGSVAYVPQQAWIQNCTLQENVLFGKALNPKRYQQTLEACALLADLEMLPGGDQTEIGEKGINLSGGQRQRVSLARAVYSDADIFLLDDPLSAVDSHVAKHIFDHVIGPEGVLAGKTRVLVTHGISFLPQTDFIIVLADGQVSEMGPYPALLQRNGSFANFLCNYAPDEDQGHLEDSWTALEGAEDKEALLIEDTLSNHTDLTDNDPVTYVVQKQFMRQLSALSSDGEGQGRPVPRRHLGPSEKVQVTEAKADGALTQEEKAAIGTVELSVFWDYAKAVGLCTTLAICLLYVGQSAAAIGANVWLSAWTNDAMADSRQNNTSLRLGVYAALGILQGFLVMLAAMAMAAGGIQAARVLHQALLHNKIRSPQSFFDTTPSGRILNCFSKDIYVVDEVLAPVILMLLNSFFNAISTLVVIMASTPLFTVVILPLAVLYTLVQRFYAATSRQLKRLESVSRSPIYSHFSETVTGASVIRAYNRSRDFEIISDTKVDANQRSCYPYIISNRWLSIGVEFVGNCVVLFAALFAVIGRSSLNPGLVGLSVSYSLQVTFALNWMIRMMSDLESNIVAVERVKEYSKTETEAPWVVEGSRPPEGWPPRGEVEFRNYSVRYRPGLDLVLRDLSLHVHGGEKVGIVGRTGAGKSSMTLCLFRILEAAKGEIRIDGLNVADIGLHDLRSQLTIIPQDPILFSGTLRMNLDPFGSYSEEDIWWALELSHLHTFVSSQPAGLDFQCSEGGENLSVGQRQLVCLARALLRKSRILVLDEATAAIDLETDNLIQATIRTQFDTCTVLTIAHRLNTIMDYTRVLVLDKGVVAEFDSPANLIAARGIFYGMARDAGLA
Put plainly: ATP-dependent transport of CLF into Sf21 membrane vesicles containing ABCC3. The series is classed as biochemical. The procedure: as §1
(§3) Transport studies with membrane vesicles were performed using the rapid filtration technique as described by Heijn M et al. [Am J Physiol 1992 January; 262(1 Pt 1):C104-C110]. Radiolabel was measured with a scintillation counter. When CLF was used as a probe, filters were placed in a glass tube, 0.1% Triton-X-100 was added and the tubes vortexed. Samples were pipetted in 96-well plates (Kartell, Noviglio, Italy) and the amount CLF quantitated by measurement of fluorescence at λexe 485 nm and λcm 520 nm using a NovoStar (BMG-labtech, Offenburg, Germany). […]

Series [3] addresses T3, ABCC2 (Homo sapiens, UniProt Q92887).
T3 construct: made in house; host or cells: Sf21 insect cells, baculovirus; plasma membrane vesicles
In words: CLF inhibition of DNP-SG transport into ABCC2 containing Sf21 membrane vesicles. The series is classed as biochemical. Particulars: ATP-dependent transport, read-out: Half maximal inhibition of DNP-SG transport with CLF. The procedure: FIGS. 5A and 5B show CLF inhibition of DNP-SG and TC transport into ABCC2 (A) and ABCB11 (B) protein containing Sf21 membrane vesicles respectively. The values are expressed as a percentage of maximal ATP-dependent transport. Significance was tested using two-sided Student's t-test: *P<0.05 for transport in the presence vs. absence of inhibitor.
as §1, with “Membrane vesicle preparation was as described by de Waart et al. [Liver Int 2006 April; 26(3):362-368].” left out
Transport studies with membrane vesicles were performed using the rapid filtration technique as described by Heijn M et al. [Am J Physiol 1992 January; 262(1 Pt 1):C104-C110]. Radiolabel was measured with a scintillation counter. […] Samples were pipetted in 96-well plates (Kartell, Noviglio, Italy) and the amount CLF quantitated by measurement of fluorescence at λexe 485 nm and λcm 520 nm using a NovoStar (BMG-labtech, Offenburg, Germany).

Series [4] can be described thus: ATP-dependent transport of CLF into control wild type Sf21 membrane vesicles. In kind it is biochemical. As to the method:
as §1, §2

The test system of series [5] is Abcc2 and Abcc3. Put plainly: Biliary secretion study of CLF in wild type, Abcc2-/- and Abcc3-/- mice. In kind it is in vivo. Particulars: for cumulative biliary excretion of CLF / hepatic retention of CLF: 120 minutes after administration. As to the method: Mice received 100 μL of 1 mmol/L CLF by injection in the tail vein. Data represent means±SD. Plasma levels are expressed in nmol/L and levels in urine, liver and bile as percentage of administered dose. Significance was tested using two-sided Student's t-test: *P<0.05 for Abcc2^-/- vs wild type mice. Data represent means±SD. Abcc2^-/- mice (against a Friend virus B-type (FVB) background) were bred at the National Cancer Institute (Amsterdam, The Netherlands). Production and characterization of the Abcc2^-/- mice was as described by […] et al. [J Pharmacol Exp Ther 2006 July; 318(1):319-327]. Wild type and Abcc3^-/- mice (against an FVB background) were bred at the animal institute of the Academic Medical Center. Production and characterization of the Abcc3^-/- mice was as described by Zelcer et al. [J Hepatol 2006 April; 44(4):768-775]. For biliary secretion studies, the gall bladder was cannulated with PE10 polyethylene tubing and 100 μL (1 mmol/L) CLF was injected in the tail vein. Bile was collected in 10 minutes fractions; liver and blood were harvested at the end of the experiment. Homogenised livers were deproteinised by adding 2 volumes of MeOH, and bile and blood samples were diluted with 0.1% Triton-X-100. The amount CLF was quantitated by measurement of fluorescence as described above.

In series [6] the target is T4, ABCG2 (Homo sapiens, UniProt Q9UNQ0).
T4 construct: made in house; host or cells: Sf21 insect cells, baculovirus (gift from Borst); plasma membrane vesicles
T4 sequence (Q9UNQ0 1-655): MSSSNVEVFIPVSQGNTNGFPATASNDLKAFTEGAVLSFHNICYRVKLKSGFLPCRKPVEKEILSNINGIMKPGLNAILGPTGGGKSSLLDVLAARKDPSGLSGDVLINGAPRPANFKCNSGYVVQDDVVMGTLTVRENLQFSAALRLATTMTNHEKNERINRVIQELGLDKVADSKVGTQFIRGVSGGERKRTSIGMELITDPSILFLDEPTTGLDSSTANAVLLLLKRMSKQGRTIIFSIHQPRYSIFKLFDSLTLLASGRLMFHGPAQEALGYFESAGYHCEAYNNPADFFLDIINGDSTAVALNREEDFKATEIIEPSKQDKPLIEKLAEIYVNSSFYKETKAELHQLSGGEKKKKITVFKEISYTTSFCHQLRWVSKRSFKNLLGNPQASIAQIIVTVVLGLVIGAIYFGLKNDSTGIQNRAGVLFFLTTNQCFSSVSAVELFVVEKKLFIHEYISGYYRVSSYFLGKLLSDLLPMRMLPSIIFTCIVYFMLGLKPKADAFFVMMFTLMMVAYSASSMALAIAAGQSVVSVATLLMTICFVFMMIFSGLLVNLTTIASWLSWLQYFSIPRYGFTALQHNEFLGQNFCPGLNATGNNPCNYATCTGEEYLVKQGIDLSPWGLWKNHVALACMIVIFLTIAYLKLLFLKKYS
In words: ATP-dependent transport of CLF into Sf21 membrane vesicles containing ABCG2. In kind it is biochemical. To be noted: compared with control vesicles. As to the method: as §1, §2

Series [7] deals with T3, ABCC2. In words: ATP-dependent transport of CLF into Sf21 membrane vesicles containing ABCC2. On the set-up: Vmax of ABCC2 mediated transport of CLF: unit not given here. The series is classed as biochemical. As to the method:
as §1, §3

[8] abbreviates: compared to control wild type Sf21 membrane vesicles.

T3 sequence (Q92887 whole entry): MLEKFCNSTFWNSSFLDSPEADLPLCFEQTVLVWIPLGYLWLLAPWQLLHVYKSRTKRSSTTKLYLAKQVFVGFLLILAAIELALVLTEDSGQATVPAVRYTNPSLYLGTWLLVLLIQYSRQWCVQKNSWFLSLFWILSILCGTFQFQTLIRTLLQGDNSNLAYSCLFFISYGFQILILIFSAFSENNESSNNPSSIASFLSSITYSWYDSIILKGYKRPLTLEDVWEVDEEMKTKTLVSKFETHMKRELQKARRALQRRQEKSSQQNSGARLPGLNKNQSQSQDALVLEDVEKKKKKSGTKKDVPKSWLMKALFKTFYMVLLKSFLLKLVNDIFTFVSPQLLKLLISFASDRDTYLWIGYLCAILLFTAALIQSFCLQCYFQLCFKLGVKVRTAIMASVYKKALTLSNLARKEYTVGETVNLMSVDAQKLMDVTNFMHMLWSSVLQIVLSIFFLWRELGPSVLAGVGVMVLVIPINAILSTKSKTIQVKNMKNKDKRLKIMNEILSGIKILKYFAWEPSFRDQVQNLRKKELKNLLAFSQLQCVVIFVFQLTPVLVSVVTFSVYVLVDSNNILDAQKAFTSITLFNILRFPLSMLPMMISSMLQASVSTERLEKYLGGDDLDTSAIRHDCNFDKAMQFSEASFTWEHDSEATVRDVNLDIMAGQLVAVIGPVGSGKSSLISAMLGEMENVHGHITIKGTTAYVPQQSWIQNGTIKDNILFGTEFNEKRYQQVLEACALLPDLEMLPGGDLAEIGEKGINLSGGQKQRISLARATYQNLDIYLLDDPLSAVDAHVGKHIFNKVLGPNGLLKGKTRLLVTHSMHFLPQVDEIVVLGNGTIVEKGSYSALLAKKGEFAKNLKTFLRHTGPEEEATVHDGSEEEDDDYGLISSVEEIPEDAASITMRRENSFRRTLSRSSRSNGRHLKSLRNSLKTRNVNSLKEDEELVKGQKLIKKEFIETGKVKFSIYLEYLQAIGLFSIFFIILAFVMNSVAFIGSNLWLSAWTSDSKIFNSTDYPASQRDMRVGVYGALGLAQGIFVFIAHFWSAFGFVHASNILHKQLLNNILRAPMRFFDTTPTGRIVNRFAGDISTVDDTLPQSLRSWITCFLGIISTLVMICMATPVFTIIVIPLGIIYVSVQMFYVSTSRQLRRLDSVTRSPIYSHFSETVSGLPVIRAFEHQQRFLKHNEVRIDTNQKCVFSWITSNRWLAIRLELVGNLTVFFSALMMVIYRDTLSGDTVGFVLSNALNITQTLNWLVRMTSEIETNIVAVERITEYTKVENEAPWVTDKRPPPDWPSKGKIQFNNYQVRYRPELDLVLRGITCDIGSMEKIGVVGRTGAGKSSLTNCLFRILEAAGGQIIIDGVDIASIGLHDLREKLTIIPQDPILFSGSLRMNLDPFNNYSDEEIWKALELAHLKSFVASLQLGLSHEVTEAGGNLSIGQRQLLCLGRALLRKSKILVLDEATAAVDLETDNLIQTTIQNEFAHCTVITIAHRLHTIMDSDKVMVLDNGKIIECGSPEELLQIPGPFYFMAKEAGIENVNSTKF
T1 sequence (O95342 whole entry): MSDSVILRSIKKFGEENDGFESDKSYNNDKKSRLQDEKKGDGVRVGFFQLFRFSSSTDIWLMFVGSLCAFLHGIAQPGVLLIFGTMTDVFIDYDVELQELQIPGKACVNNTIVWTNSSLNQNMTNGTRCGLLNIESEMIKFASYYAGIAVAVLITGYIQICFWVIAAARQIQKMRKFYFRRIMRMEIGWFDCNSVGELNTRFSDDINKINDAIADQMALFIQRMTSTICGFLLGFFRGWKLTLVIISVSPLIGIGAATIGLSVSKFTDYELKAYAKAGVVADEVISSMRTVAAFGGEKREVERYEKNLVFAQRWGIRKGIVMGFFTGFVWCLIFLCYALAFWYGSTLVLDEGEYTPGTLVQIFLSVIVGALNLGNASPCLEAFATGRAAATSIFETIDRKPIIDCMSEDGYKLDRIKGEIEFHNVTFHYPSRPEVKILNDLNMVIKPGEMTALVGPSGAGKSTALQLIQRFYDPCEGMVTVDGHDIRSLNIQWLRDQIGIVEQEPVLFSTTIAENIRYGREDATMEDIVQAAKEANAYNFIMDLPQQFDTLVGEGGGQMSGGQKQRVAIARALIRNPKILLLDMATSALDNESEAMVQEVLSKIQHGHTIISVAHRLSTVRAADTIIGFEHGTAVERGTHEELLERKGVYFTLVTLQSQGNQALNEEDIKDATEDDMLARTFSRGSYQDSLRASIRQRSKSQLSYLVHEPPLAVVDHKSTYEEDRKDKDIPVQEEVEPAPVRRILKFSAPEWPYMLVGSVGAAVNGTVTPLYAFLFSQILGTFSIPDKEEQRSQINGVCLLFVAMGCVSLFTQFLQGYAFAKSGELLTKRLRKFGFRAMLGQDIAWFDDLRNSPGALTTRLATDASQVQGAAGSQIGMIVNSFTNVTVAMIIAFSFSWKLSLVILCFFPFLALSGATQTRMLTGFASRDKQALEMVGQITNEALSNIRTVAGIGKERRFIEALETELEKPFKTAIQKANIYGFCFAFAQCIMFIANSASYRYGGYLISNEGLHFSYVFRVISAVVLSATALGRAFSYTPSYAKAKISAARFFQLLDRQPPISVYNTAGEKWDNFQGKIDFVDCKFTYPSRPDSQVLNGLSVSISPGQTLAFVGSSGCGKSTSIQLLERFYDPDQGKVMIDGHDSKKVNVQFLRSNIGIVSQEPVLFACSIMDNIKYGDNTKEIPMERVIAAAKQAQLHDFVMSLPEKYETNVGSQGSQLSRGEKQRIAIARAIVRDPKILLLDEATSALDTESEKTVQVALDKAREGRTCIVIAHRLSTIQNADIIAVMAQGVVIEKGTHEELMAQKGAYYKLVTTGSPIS

With `CC(CCC(=O)NC(CCCCNC(=S)Nc1ccc(-c2c3ccc(=O)cc-3oc3cc(O)ccc23)c(C(=O)O)c1)C(=O)O)C1CCC2C3C(O)CC4CC(O)CCC4(C)C3CC(O)C12C` (stereo not shown) [CLF, cholyl lysyl fluorescein], the “ATP-dependent transport of CLF in ABCB11 containing membrane vesicles” value in series [1] is listed as “not higher than in control vesicles”. The “Vmax of ABCC3 mediated transport of CLF” value in series [2] (30 μg total protein, presence or absence of 4 mmol/L ATP) worked out at 188±55 μmol CLF/mg protein/min. Further, the “CLF transport in ABCC3 containing membrane vesicles” value in series [2] (setting [8]) is “much higher CLF transport rates”. The IC50 in series [3] is around 1000 nM. In series [4], the “ATP-dependent uptake of CLF in control vesicles” value is “slight ATP-dependent uptake”. The “biliary output of CLF in Abcc3-/- mice in comparison with wild type mice” value in series [5] (100 μL 1 mmol/L CLF in the tail vein) is listed as “not affected”. In addition, the “CLF dose excreted into bile within 20 minutes” value in series [5] (Abcc2-/- mice, 100 μL 1 mmol/L CLF in the tail vein) was “less than 2%”; in series [5] (wild type mice, 100 μL 1 mmol/L CLF in the tail vein), around 70%. Further, the “cumulative biliary excretion of CLF” value was 32 % of the administered dose in series [5] (Abcc2-/- mice) and 85 % of the administered dose in series [5] (wild type mice). For the same compound, the “hepatic retention of CLF” value in series [5] (Abcc2-/- mice) is given as 64 % of the administered dose; in series [5] (wt mice) it was 1 % of the administered dose. For the same compound, the “plasma and liver CLF contents in Abcc3-/- mice in comparison with wild type mice” value in series [5] (after 2 hours) is reported as “no differences”. Further, in series [6], the “ATP-dependent transport of CLF in ABCG2 containing membrane vesicles” value is listed as “not higher than in control vesicles”. For the same compound, in series [7] (10 μg total protein, presence or absence of 4 mmol/L ATP), the “Vmax of ABCC2 mediated transport of CLF” value came to 436±215. In addition, the “CLF transport in ABCC2 containing membrane vesicles” value in series [7] (setting [8]) was “much higher CLF transport rates”.
